# Results: US8242160B2, “Inhibitors of ubiquitin E1” (The United States of America, as represented by the …, priority 2005, dated 2012)
# Legend:
# [1] = target: T1, His6-E1 (Homo sapiens, UniProt P22314); assay: Bead immobilized His6-E1: wash-out and glutathione competition; assay type: biochemical
# T1 sequence (P22314 1-1058): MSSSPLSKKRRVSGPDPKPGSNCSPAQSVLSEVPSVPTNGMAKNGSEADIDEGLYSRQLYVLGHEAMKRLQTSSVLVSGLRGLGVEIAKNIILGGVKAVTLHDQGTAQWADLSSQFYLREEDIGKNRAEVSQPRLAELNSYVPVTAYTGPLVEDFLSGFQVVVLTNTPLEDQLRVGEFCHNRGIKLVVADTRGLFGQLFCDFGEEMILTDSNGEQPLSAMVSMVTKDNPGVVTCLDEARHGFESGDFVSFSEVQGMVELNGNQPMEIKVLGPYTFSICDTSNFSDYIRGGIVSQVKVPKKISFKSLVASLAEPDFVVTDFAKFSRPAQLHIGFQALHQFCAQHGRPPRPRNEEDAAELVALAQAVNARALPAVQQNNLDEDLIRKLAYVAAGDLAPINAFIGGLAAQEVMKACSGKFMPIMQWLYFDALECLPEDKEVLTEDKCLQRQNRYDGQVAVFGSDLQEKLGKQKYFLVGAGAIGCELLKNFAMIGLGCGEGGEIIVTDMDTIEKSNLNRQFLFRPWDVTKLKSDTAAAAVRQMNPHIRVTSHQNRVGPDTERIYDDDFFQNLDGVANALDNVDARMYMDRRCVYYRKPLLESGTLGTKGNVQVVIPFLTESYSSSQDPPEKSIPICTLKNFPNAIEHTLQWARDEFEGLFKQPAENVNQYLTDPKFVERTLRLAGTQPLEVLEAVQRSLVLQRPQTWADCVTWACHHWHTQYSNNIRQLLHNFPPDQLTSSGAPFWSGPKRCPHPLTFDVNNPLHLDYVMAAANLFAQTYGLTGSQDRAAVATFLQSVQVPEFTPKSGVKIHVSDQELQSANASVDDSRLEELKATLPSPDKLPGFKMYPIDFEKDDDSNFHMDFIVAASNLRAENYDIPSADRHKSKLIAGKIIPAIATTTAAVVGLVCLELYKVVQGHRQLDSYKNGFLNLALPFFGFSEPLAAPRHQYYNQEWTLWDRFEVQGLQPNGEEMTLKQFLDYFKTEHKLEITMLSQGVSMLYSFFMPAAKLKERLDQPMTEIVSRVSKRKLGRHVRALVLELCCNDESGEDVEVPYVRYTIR
# Method: Bead immobilized His6-E1 was treated with E1 inhibitor 4-[4-(5-nitro-furan-2-ylmethylene)-3,5-dioxo-pyrazolidin-1-yl]-benzoic acid methyl acid (E1 41) at a range of concentrations (0-50 μm) as indicated in FIG. 9A. The beads were subjected to wash (+wash) or no wash (−wash) conditions.
# The ability of a compound to inhibit E1 activity may come from the ability of the compound to interfere with the formation of thiolester linkages between ubiquitin and E1. Next, the biological activity of E1 41 was tested to examine if it can be inhibited or prevented by treatment with an excess of reduced glutathione. […] Thus, E1 41 can act as a target for nucleophilic attack by active site thiol of E1 (e.g., a central double bond of a compound can serve as Michael-acceptor for the nucleophilic thiol in a Michael-type reaction).
# [2] = target: T2, GST-UbcH5B (Homo sapiens, UniProt P62837); assay: E1+E2 assay: formation of E2-ubiquitin complex; assay type: biochemical; conditions: E1 preloaded with 32P-labeled ubiquitin, then E2 added with compound
# T2 construct: made in house; host or cells: bacteria
# Method: One way that the compounds might inactivate E1 is by alkylating or otherwise irreversibly inactivating active site cysteines. Like E1, E2 also uses a cysteine to form thiolester bond with ubiquitin. Inhibitors that directly act on the cysteine of E1 might therefore also affect E2 activity, and thus function in a relatively non-specific manner. […]
# c. E1+E2 Assay with Immobilized E2 • 20 pmoles of bacterially-expressed GST-UbcH5B are bound to GS beads for 30 minutes at room temperature. […] This is followed by resolution by SDS-PAGE under non-reducing conditions and exposure as above.
# T2 sequence (P62837 whole entry): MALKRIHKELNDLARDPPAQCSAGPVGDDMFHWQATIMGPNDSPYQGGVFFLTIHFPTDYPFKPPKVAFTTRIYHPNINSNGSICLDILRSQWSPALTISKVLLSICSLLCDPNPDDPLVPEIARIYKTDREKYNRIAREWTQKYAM
smiles,measurement,setting,value
"COC(=O)c1ccc(N2NC(=O)/C(=C/c3ccc([N+](=O)[O-])o3)C2=O)cc1 [E1-41, 4-[4-(5-nitro-furan-2-ylmethylene)-3,5-dioxo-pyrazolidin-1-yl]-benzoic acid methyl acid]",removal of compound from E1 by washing,"[1]; 0-50 μm, wash versus no wash",cannot be washed away
same,effect of reduced glutathione on the inhibitory action on E1,"[1]; 50 μM compound, GSH 0.1-10 mM",can be prevented by the addition of reduced glutathione (GSH) in a dose-dependent manner
same,transfer of ubiquitin from E1 to E2 (formation of E2-ubiquitin complex),[2],did not affect transfer of ubiquitin from E1 to E2
